# According to US20250154170A1, “FUSED PYRIMIDINES AS KRAS INHIBITORS” (priority 2022, published 2025):
# Legend:
# K-Ras G12D = K-Ras G12D (Homo sapiens, UniProt P01116, G12D); test: K-Ras G12D activation by SOS1 (KRAS G12D activation by SOS1cat assay, HTRF); assay type: biochemical; conditions: mean, SOS1cat mediated loading of GST-KRAS G12D-GDP with fluorescent GTP analogue, read-out: K-Ras G12D activation by SOS1 IC50 - [mol/l] (mean)
# Protocol: (§1) Preparation of test compound dilutions. A 100-fold concentrated solution of the test compound (50 nL) in DMSO was transferred to microtiter test plates (384 or 1,536 wells, Greiner Bio-One, Germany) using either a Hummingbird liquid handler (Digilab, MA, USA) or an Echo acoustic system (Labcyte, CA, USA). Plates were sealed with adhesive foil or heat-sealed and stored at −20 C until use. Serial dilutions of test compounds were prepared in 100% DMSO using a Precision Pipetting System (BioTek, USA).
# (§2) Measurement and evaluation of inhibition data, calculation of IC50 values. Homogeneous time-resolved fluorescence (HTRF) was measured with a PHERAstar reader (BMG, Germany) using the HTRF module (excitation: 337 nm; emission 1: 620 nm, emission 2: 665 nm). The ratio of the emissions at 665 and 620 nm was used as the specific signal for further evaluation. The data were normalized using the controls: DMSO=0% inhibition, inhibition control wells with inhibitor control solution=100% inhibition. Compounds were tested in duplicates at up to 11 concentrations (e.g. 20 μM, 5.7 μM, 1.6 μM, 0.47 μM, 0.13 μM, 38 nM, 11 nM, 3.1 nM, 0.89 nM, 0.25 nM and 0.073 nM). IC50 values were calculated using a four-parameter fit, with a commercial software package (Genedata Screener, Switzerland).
# (§3) KRAS^G12C activation by SOS1^cat assay (“On-assay”). This assay quantifies SOS1^cat mediated loading of KRAS^G12C-GDP with a fluorescent GTP analogue. Detection of successful loading was achieved by measuring resonance energy transfer from anti-GST-terbium (FRET donor) bound to GST-KRAS^G12C to the loaded fluorescent GTP analogue (FRET acceptor). The fluorescent GTP analogue EDA-GTP-DY-647P1 [2′/3′-O-(2-aminoethyl-carbamoyl)guanosine-5′-triphosphate labelled with DY-647P1 (Dyomics GmbH, Germany)] was synthesized by Jena Bioscience (Germany) and supplied as a 1 mM aqueous solution. A KRAS^G12C working solution was prepared in assay buffer [10 mM HEPES pH 7.4 (AppliChem), 150 mM NaCl (Sigma), 5 mM MgCl2 (Sigma), 1 mM DTT (Thermo Fisher), 0.05% BSA Fraction V pH 7.0 (ICN Biomedicals), 0.0025% (v/v) Igepal (Sigma)] containing GST-KRAS^G12C (final concentration in assay 50 nM) and anti-GST-terbium (Cisbio, France) (final concentration in assay 1 nM). A SOS1^cat working solution was prepared in assay buffer containing SOS1^cat (final concentration 10 nM) and EDA-GTP-DY-647P1 (final concentration 100 nM). An inhibitor control solution was prepared in assay buffer containing EDA-GTP-DY-647P1 (final concentration 100 nM) without SOS1^cat. All steps of the assay were performed at 20° C. A volume of 3 μL of the KRAS^G12C working solution was added to all wells of the test plate using a Multidrop dispenser (Thermo LabSystems). After 15 min, 2 μL of the SOS1^ct working solution was added to all wells, except for the inhibitor control solution wells. After 30 min incubation, HTRF was measured.
# (§4) G12D and Wild-type KRAS activation by SOS1cat assays. These assays quantify human SOS1^cat mediated loading of wild-type GST-KRAS^WT-GDP or GST-KRAS^G12D-GDP with a fluorescent GTP analogue. The assay was performed similarly to the KRAS^G12C activation by SOS1^cat assay with the following differences: final concentration of SOS1^cat of 60 nM and final incubation time before measurement of 10 min for KRAS^G12D assay, final concentration of SOS1^cat of 20 nM and final incubation time before measurement of 15 min for wild-type KRAS assay, respectively. GST-KRAS^G12C was replaced by GST-KRAS^WT or GST-KRAS^G12D, respectively, also at 50 nM final concentration.
# KRAS^G12D activation by SOS1^cat assay (“On-assay”). This assay quantifies SOS1^cat mediated loading of KRAS^G12D-GDP with a fluorescent GTP analogue. Detection of successful loading was achieved by measuring resonance energy transfer from anti-GST-terbium (FRET donor) bound to GST-KRAS^G12D to the loaded fluorescent GTP analogue (FRET acceptor).
# K-Ras-wildtype = K-Ras-wildtype (Homo sapiens, UniProt P01116); test: K-Ras-wildtype activation by SOS1 (wild-type KRAS activation by SOS1cat assay, HTRF); assay type: biochemical; conditions: mean, SOS1cat mediated loading of wild-type GST-KRAS-GDP with fluorescent GTP analogue, read-out: K-Ras-wildtype activation by SOS1 IC50 - [mol/l] (mean)
# Protocol: as §1, §2, §3, §4
# Wild-type KRAS activation by SOS1^cat assay. This assay quantifies human SOS1^cat mediated loading of wild-type GST-KRAS-GDP with a fluorescent GTP analogue. The assay was performed similarly to the KRAS^G12D activation by SOS1^cat assay just by replacement of GST-KRAS^G12D by wild-type GST-KRAS while concentrations of all components and incubation times were the same.
# Chain of K-Ras G12D (P01116 1-188 isoform P01116-2 G12D): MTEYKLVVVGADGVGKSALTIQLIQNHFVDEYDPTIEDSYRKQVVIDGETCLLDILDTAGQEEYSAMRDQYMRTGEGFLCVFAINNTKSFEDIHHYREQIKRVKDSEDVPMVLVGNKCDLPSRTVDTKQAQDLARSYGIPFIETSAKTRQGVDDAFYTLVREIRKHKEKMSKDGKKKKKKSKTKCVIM
# Chain of K-Ras-wildtype (P01116 1-188 isoform P01116-2): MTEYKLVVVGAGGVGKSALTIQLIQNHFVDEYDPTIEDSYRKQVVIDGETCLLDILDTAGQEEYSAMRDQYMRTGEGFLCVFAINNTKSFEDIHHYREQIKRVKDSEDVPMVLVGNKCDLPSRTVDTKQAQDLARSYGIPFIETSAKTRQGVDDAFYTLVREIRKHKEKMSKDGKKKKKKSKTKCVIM
SMILES,IC50 (K-Ras G12D) [nM],IC50 (K-Ras-wildtype) [nM]
"C#Cc1cccc2cc(O)cc(N(C)c3nc4c(N5CC6CCC(C5)N6)nc(OC[C@@]56CCCN5C[C@H](F)C6)nc4s3)c12 [Example 31, 4-{[7-(3,8-diazabicyclo[3.2.1]octan-3-yl)-5-{[(2R,7aS)-2-fluorotetrahydro-1H-pyrrolizin-7a(5H)-yl]methoxy}[1,3]thiazolo[5,4-d]pyrimidin-2-yl](methyl)amino}-5-ethynylnaphthalen-2-ol]",4.42,61.5
"C#Cc1c(F)ccc2cc(O)cc(Cc3nc4c(N5CC6CCC(C5)N6)nc(OC[C@@]56CCCN5C[C@H](F)C6)nc4s3)c12 [Example 32, 4-{[7-(3,8-diazabicyclo[3.2.1]octan-3-yl)-5-{[(2R,7aS)-2-fluorotetrahydro-1H-pyrrolizin-7a(5H)-yl]methoxy}[1,3]thiazolo[5,4-d]pyrimidin-2-yl]methyl}-5-ethynyl-6-fluoronaphthalen-2-ol]",3.95,99.8
